Reference: US20220380443A1, “TARGETING NAPA-LINKED PEP[…] TREATING LYME DISEASE” (priority 2021, published 2022)

Experiments:
[1] = tested on: B. burgdorferi 5A11 and 5A11/napA; assay: Lysozyme and NaCl stress tests (microtiter growth, colony forming units); type: cell-based, Borrelia burgdorferi; settings: microtiter plate, end-point after 6 days, FIG. 7A
Experimental: Initial studies geared towards understanding both permissive and restrictive growth conditions upon stress were performed in microplates with serial dilutions. Each strain was cultured to ˜1×10^6 cells/mL and subsequently back diluted to a final concentration of 1×10^4 cells/mL in fresh B SKIT containing cell-wall stress. Lysozyme and NaCl were serially diluted 1:1. The final concentration of Lysozyme ranged from 2 mg/mL to 0 mg/mL, while NaCl varied from 500 nM to 7.8 mM. […] Both microtiter plates contained 4 wells of uninoculated media, which served as a negative control. These 96 well plates were allowed to incubate at 37° C. under 5% CO2 for 6 days. Afterwards, they were placed at ambient conditions for 2 hours before being imaged.
Parental and NapA mutant bacteria were cultured to ˜6.5×10^6 cells/mL and back diluted to a final starting concentration of 10^6 cells/mL. Each culture was stressed with Lysozyme (0.37 mg/mL) or NaCl (0.111 M) for 24 hours without additional antibiotic selection. Afterwards, each culture was plated using standard methods [92] and cultured at 37° C. under 5% CO2.

dHL-60 cells = assay: dHL-60 cell (neutrophil) migration in microfluidic competitive chemotaxis-chip (μC3); type: cell-based, Human; settings: 125 μg/mL PG sample, 10 nM fMLP, 100 nM LTB4, 5 hours; for Percentage of Cells Migrated toward stimulus: mean±SD of three biological replicates
Text: Fresh, mixed donor human peripheral blood mononuclear cells (PBMCs) (Zen-Bio) were re-suspended in PBMC media (Zen-Bio) overnight prior to stimulations. Human NOD2 reporter cells, which were used to detect PG in OMVs (see below), were purchased from Invi-vogen and cultured as recommended by the manufacturer. Human promyelocytic leukemia cells (HL-60 CCL-240, American Type Culture Collection ATCC, Manassas, Va.) were cul-tured in complete media comprising of Iscove's Modified Dulbecco's Medium (IMDM, ATCC, Manassas, Va.) supplemented with 10% fetal bovine serum (FBS, ATCC, Manassas, Va.) at 37° C. in 5% CO2, according to ATCC instructions. HL-60 cells were differentiated into a neutrophil-like state with 1.5% dimethyl sulfoxide (DMSO, Sigma-Aldrich, St. Louis, Mo.) to 1.5×10^5 cells/mL for five days. Differentiated HL-60 cells (dHL-60 cells) were stained with Hoechst solution [20 mM] for 10 minutes (Thermo Fisher Scientific, Waltham, Mass.) at 37° C. and 5% CO2 and spun down and re-suspended into a concentration of 5.0×10^7 cells/mL immediately before use in the migration assay.
The microfluidic competitive chemotaxis-chip (μC3) was used to perform each migration assay. This device allowed for the creation of a dual gradient through two opposing chemoattractant reservoirs. The central cell-loading chamber is connected to the two reservoirs by perpendicular cell migration ladders (measured 10 μm wide×10 μm tall). Device fabrication was as previously. Briefly, two layers of photoresist (SUB, MicroChem), the first one 10 μm thin (corresponding to the migration channels) and the second one 70 μm thick (corresponding to the neutrophil loading chamber) were patterned on one silicon wafer sequentially using two photolithographic masks and processing cycles according to the instructions from the manufacturer. The wafer with patterned photoresist was used as a mold to produce polydimethylsiloxane (PDMS) (Sylgard 184, Elsworth Adhesives, Wilmington, Mass.) devices, which were then bonded to the base of glass-bottom 6-well plates (MatTek Corp., Ashland, Mass.), using an oxygen plasma machine (Nordson March, Concord, Calif.). Prior to each migration assay, the device was primed with fibronectin (Sigma-Aldrich, St. Louis, Mo.) (11 μg/mL). After priming with fibronectin, each device was covered in 4 mL complete media. […]
Each assay was visualized on a fully automated Nikon TiE microscope using a Plan Fluor 10×Ph1 DLL (NA=0.3) lens with a biochamber heated to 37° C. with 5% CO2. […] Image analysis of cell migration counts was analyzed automatically using ImageJ Cell tracking was conducted using an automated tracker, TrackMate (custom tracking and analysis codes are available for download at https://github.com/boribong/Single-Cell-Migration-Tracking) and ImageJ software (NIH). […]

Compound | resistance of wild-type cells to NaCl-induced stress versus 5A11/napA ([1]; NaCl 7.8 to 500 mM) | less enzyme needed to ablate 5A11/napA growth than wild-type bacteria ([1]; Lysozyme 0 to 2 mg/mL) | dHL-60 Cell Velocity, cells migrating toward stimulus (dHL-60 cells) [μm/min] | Percentage of Cells Migrated toward stimulus (dHL-60 cells) [%]
[Cl-].[Na+] [NaCl] | more than 8 times | – | – | –
Lysozyme | – | 5-6 times | – | –
Formylmethionine-leucyl-phenylalanine [fMLP] | – | – | 6.93±4.40 | 35.94±5.42
CCCCC/C=C\C[C@@H](O)/C=C/C=C/C=C\[C@@H](O)CCCC(=O)O [LTB4, Leukotriene B4] | – | – | 7.04±4.90 | 25.89±3.52
